Laboratory results reported in patent US20060198900A1, “Bioactive Agent Compositions for Repair of Cell Injuries” (Nutritional Bioscience Limited, priority 2004, published 2006).
“Also recorded” adds a separate entry of the source.

Tests used:
[1] = test system: recurrent herpes simplex infection (cold sores); conditions: oral 600-1000 mg per day in two doses; increasing from 46 days; cited from earlier work
[2] = test system: Caco2-BBe cells; conditions: relatively small amount, 1 mg protein/ml; cited from earlier work
[3] = test system: indomethacin-induced rat gastric damaging model; test: Indomethacin-induced rat gastric damaging model; format: in vivo; conditions: 1% via gavage before indomethacin
[4] = test system: human colonic cancer cell line HT-29; test: Cell restitution (migration) assay in wounded HT-29 monolayers; format: cell-based; conditions: 10 ug/ml, 8 hours after wounding
Experimental: Accordingly, the human colonic cancer cell line HT-29 was grown to confluence in six well plates in a solution of DMEM-containing glutamine and 10% fetal calf serum. The monolayers of the cells were then wounded by scraping a disposable pipette tip across the dishes, washed with fresh serum-free medium, and then cultured in a serum-free medium in the presence of 1 mg/ml, 2 mg/ml, and 5 mg/ml colostrum solutions. The rate of movement of the anterior edges of the wounded monolayer cells was then determined by taking serial photomicrographs at various times after wounding (i.e., 0, 4, 8, 12, and 24) hours, using an inverted Nikon TS100 microscope and a Nikon Coolpix 800 digital camera with 100-fold magnification. Identical regions were examined at each time point by premarking the base of the plates to facilitate alignment. […] Each wound was examined in at least three different regions, and expressed as mean and SEM of three separate experiments.
The next study analyzed the potential added benefit of using colostrum rather than milk based product. […] The distance migrated by the leading edge of the cells 8 hours after wounding was then assessed. […]
The next study analysed the potential added benefit of using licorice as a stimulant of restitution. […] The distance migrated by the leading edge of the cells 8 hours after wounding was then assessed. […]

Nc1nc2c(ncn2COCCO)c(=O)[nH]1 [acyclovir]
mean time to recurrence of cold sores [1]: 118 days

O=c1c(-c2ccc(O)cc2)coc2cc(O)cc(O)c12 [genistein]
growth of Caco2-BBe cells [2]: increase some parameters of growth

O=C([O-])O.[Na+] [sodium bicarbonate]
reduction of degree of gastric injury compared to saline control [3]: about 75%

epidermal growth factor [EGF, peptide growth factor used as positive control]
amount of migration of leading edge versus DMEM alone [4]: two-fold increase; also recorded: increased the amount of cell movement
